Data taken from patent US9302999B2, “Substituted triazoles as herbicides” (E. I. DU PONT DE NEMOURS AND COMPANY, priority 2012, dated 2016).

What was measured:
Type in all cases: in vivo
[1] = test system: canarygrass (Phalaris minor); test: Test C postemergence: canarygrass
From the text: (§1) At the same time, plants selected from these crop and weed species and also barley (winter barley, Hordeum vulgare), canarygrass (Phalaris minor), chickweed (common chickweed, Stellaria media) windgrass (Apera spica-venti) and deadnettle (henbit deadnettle, Lamium amplexicaule) were planted in pots containing Redi-Earth® planting medium (Scotts Company, 14111 Scottslawn Road, Marysville, Ohio 43041) comprising spaghnum peat moss, vermiculite, wetting agent and starter nutrients and treated with postemergence applications of test chemicals formulated in the same manner. Plants ranged in height from 2 to 18 cm (1- to 4-leaf stage) for postemergence treatments.
(§2) Treated plants and controls were maintained in a greenhouse for 13 to 15 days, after which time all species were compared to controls and visually evaluated. Plant response ratings, summarized in Table C, are based on a scale of 0 to 100 where 0 is no effect and 100 is complete control. A dash (-) response means no test result.

[2] = test system: goosegrass (Eleusine indica); test: Test C pre-/postemergence: goosegrass
From the text: (§3) Seeds of plant species selected from blackgrass (Alopecurus myosuroides), bromegrass, downy (downy bromegrass, Bromus tectorum), foxtail, green (green foxtail, Setaria viridis), ryegrass, Italian (Italian ryegrass, Lolium multiflorum), winter wheat (Triticum aestivum), wild oat (Avena fatua), galium (catchweed bedstraw, Galium aparine), bermudagrass (Cynodon dactylon), surinam grass (Brachiaria decumbens), cocklebur (common cocklebur, Xanthium strumarium), corn (Zea mays), large crabgrass (Digitaria sanguinalis), woolly cupgrass (Eriochloa villosa), foxtail, giant (giant foxtail, Setaria faberii), goosegrass (Eleusine indica), johnsongrass (Sorghum halepense), kochia (Kochia scoparia), lambsquarters (Chenopodium album), morningglory (Ipomoea coccinea), nightshade (eastern black nightshade, Solanum ptycanthum), nutsedge, yellow (yellow nutsedge, Cyperus esculentus), pigweed (Amaranthus retroflexus), ragweed (common ragweed, Ambrosia elation), soybean (Glycine max), common (oilseed) sunflower (Helianthus annuus), Russian thistle (Salsola kali) and velvetleaf (Abutilon theophrasti) were planted into a blend of loam soil and sand and treated preemergence with test chemicals formulated in a non-phytotoxic solvent mixture which included a surfactant.
as §1, §2

[3] = test system: bromegrass, downy (downy bromegrass, Bromus tectorum); test: Test C pre-/postemergence: bromegrass, downy
From the text: as §3, §1, §2

[4] = test system: windgrass (Apera spica-venti); test: Test C postemergence: windgrass
From the text: as §1, §2

[5] = test system: barley (winter barley, Hordeum vulgare); test: Test C postemergence: barley
From the text: as §1, §2

[6] = test system: foxtail, green (green foxtail, Setaria viridis); test: Test C pre-/postemergence: foxtail, green
From the text: as §3, §1, §2

[7] = test system: surinam grass (Brachiaria decumbens); test: Test C pre-/postemergence: surinam grass
From the text: as §3, §1, §2

[8] = test system: deadnettle (henbit deadnettle, Lamium amplexicaule); test: Test C postemergence: deadnettle
From the text: as §1, §2

[9] = test system: cocklebur (common cocklebur, Xanthium strumarium); test: Test C pre-/postemergence: cocklebur
From the text: as §3, §1, §2

[10] = test system: nightshade (eastern black nightshade, Solanum ptycanthum); test: Test C pre-/postemergence: nightshade; details: Preemergence
From the text: as §3, §1, §2

[11] = 31 g ai/ha, scale 0 to 100 (0 no effect, 100 complete control)
[12] = 62 g ai/ha, scale 0 to 100 (0 no effect, 100 complete control)
[13] = 125 g ai/ha, scale 0 to 100, 0 no effect, 100 complete control
[14] = Postemergence, 31 g ai/ha, scale 0 to 100 (0 no effect, 100 complete control)
[15] = Postemergence, 62 g ai/ha, scale 0 to 100 (0 no effect, 100 complete control)
[16] = Postemergence, 125 g ai/ha, scale 0 to 100, 0 no effect, 100 complete control
[17] = Postemergence, 250 g ai/ha, scale 0 to 100
[18] = Preemergence, 31 g ai/ha, scale of 0 to 100, 0 is no effect, 100 is complete control
[19] = Preemergence, 62 g ai/ha, scale of 0 to 100, 0 is no effect, 100 is complete control
[20] = Preemergence, 125 g ai/ha, scale 0 to 100, 0 no effect, 100 complete control
[21] = Preemergence, 250 g ai/ha, scale 0 to 100, 0 no effect, 100 complete control
[22] = 62 g ai/ha, scale of 0 to 100, 0 is no effect, 100 is complete control
[23] = 250 g ai/ha, scale 0 to 100, 0 no effect, 100 complete control

COc1nn(-c2cccc(F)c2)nc1Cc1ccnc(C(F)(F)F)c1 [Compound 139]
Plant response rating, Canarygrass [1, 11]: 40
Plant response rating, Canarygrass [1, 12]: 45
Plant response rating, Canarygrass [1, 13]: 60
Plant response rating, Canarygrass ([1]; 250 g ai/ha, scale 0 to 100): 80
Plant response rating, Goosegrass [2, 14]: 15
Plant response rating, Goosegrass [2, 15]: 40
Plant response rating, Goosegrass [2, 16]: 60
Plant response rating, Goosegrass [2, 17]: 80
Plant response rating, Goosegrass [2, 18]: 98
Plant response rating, Goosegrass [2, 19]: 100
Plant response rating, Goosegrass [2, 20]: 100
Plant response rating, Goosegrass [2, 21]: 100
Plant response rating, Bromegrass, Downy [3, 14]: 5
Plant response rating, Bromegrass, Downy [3, 15]: 10
Plant response rating, Bromegrass, Downy [3, 16]: 15
Plant response rating, Bromegrass, Downy [3, 17]: 30
Plant response rating, Bromegrass, Downy [3, 18]: 0
Plant response rating, Bromegrass, Downy [3, 19]: 20
Plant response rating, Bromegrass, Downy [3, 21]: 85
Plant response rating, Windgrass [4, 11]: 50
Plant response rating, Windgrass [4, 12]: 70
Plant response rating, Windgrass [4, 13]: 80
Plant response rating, Barley [5, 11]: 5
Plant response rating, Barley [5, 12]: 10
Plant response rating, Barley [5, 13]: 35
Plant response rating, Barley ([5]; 250 g ai/ha, scale 0 to 100): 40
Plant response rating, Foxtail, Green [6, 14]: 95
Plant response rating, Foxtail, Green [6, 15]: 95
Plant response rating, Foxtail, Green [6, 16]: 100
Plant response rating, Foxtail, Green [6, 17]: 100
Plant response rating, Foxtail, Green [6, 18]: 90
Plant response rating, Foxtail, Green [6, 19]: 90
Plant response rating, Foxtail, Green [6, 21]: 90
Plant response rating, Surinam Grass [7, 14]: 10
Plant response rating, Surinam Grass [7, 15]: 35
Plant response rating, Surinam Grass [7, 16]: 35
Plant response rating, Surinam Grass [7, 17]: 40
Plant response rating, Surinam Grass [7, 18]: 15
Plant response rating, Surinam Grass [7, 19]: 65
Plant response rating, Surinam Grass [7, 20]: 85
Plant response rating, Surinam Grass [7, 21]: 98
Plant response rating, Deadnettle [8, 11]: 95
Plant response rating, Deadnettle [8, 12]: 95
Plant response rating, Deadnettle [8, 13]: 98
Plant response rating, Deadnettle ([8]; 250 g ai/ha, scale 0 to 100): 100
Plant response rating, Cocklebur [9, 19]: 0
Plant response rating, Cocklebur [9, 20]: 0
Plant response rating, Cocklebur [9, 21]: 5
Plant response rating, Nightshade [10, 22]: 75
Plant response rating, Nightshade [10, 13]: 85
Plant response rating, Nightshade [10, 23]: 98

FC(F)(F)c1ccc(-n2nc(Cl)c(Cc3ccnc(C(F)(F)F)c3)n2)cc1 [Compound 28]
Plant response rating, Canarygrass [1, 11]: 30
Plant response rating, Canarygrass [1, 12]: 50
Plant response rating, Canarygrass [1, 13]: 60
Plant response rating, Canarygrass ([1]; 250 g ai/ha, scale 0 to 100): 90
Plant response rating, Goosegrass [2, 14]: 20
Plant response rating, Goosegrass [2, 15]: 20
Plant response rating, Goosegrass [2, 16]: 25
Plant response rating, Goosegrass [2, 17]: 45
Plant response rating, Bromegrass, Downy [3, 14]: 5
Plant response rating, Bromegrass, Downy [3, 15]: 25
Plant response rating, Bromegrass, Downy [3, 16]: 35
Plant response rating, Bromegrass, Downy [3, 17]: 35
Plant response rating, Windgrass [4, 11]: 30
Plant response rating, Windgrass [4, 12]: 45
Plant response rating, Windgrass [4, 13]: 50
Plant response rating, Windgrass ([4]; 250 g ai/ha, scale 0 to 100): 50
Plant response rating, Barley [5, 11]: 10
Plant response rating, Barley [5, 12]: 15
Plant response rating, Barley [5, 13]: 20
Plant response rating, Barley ([5]; 250 g ai/ha, scale 0 to 100): 35
Plant response rating, Foxtail, Green [6, 14]: 30
Plant response rating, Foxtail, Green [6, 15]: 70
Plant response rating, Foxtail, Green [6, 16]: 70
Plant response rating, Foxtail, Green [6, 17]: 85
Plant response rating, Surinam Grass [7, 14]: 5
Plant response rating, Surinam Grass [7, 15]: 10
Plant response rating, Surinam Grass [7, 16]: 15
Plant response rating, Surinam Grass [7, 17]: 15
Plant response rating, Deadnettle [8, 11]: 40
Plant response rating, Deadnettle [8, 12]: 80
Plant response rating, Deadnettle [8, 13]: 90
Plant response rating, Deadnettle ([8]; 250 g ai/ha, scale 0 to 100): 100
Plant response rating, Cocklebur [9, 14]: 10
Plant response rating, Cocklebur [9, 15]: 15
Plant response rating, Cocklebur [9, 16]: 20
Plant response rating, Cocklebur [9, 17]: 25

Cc1nn(-c2ccc(F)cc2F)nc1Oc1ccnc(C(F)(F)F)c1 [Compound 146]
Plant response rating, Goosegrass [2, 18]: 70
Plant response rating, Goosegrass [2, 19]: 85
Plant response rating, Goosegrass [2, 20]: 100
Plant response rating, Goosegrass [2, 21]: 100
Plant response rating, Bromegrass, Downy [3, 18]: 0
Plant response rating, Bromegrass, Downy [3, 19]: 0
Plant response rating, Bromegrass, Downy [3, 20]: 15
Plant response rating, Bromegrass, Downy [3, 21]: 80
Plant response rating, Foxtail, Green [6, 18]: 90
Plant response rating, Foxtail, Green [6, 19]: 90
Plant response rating, Foxtail, Green [6, 20]: 90
Plant response rating, Foxtail, Green [6, 21]: 90
Plant response rating, Surinam Grass [7, 18]: 10
Plant response rating, Surinam Grass [7, 19]: 20
Plant response rating, Surinam Grass [7, 20]: 100
Plant response rating, Surinam Grass [7, 21]: 100
Plant response rating, Cocklebur [9, 18]: 0
Plant response rating, Cocklebur [9, 19]: 0
Plant response rating, Cocklebur [9, 20]: 0
Plant response rating, Cocklebur [9, 21]: 0
Plant response rating, Nightshade [10, 22]: 35
Plant response rating, Nightshade [10, 13]: 90
Plant response rating, Nightshade [10, 23]: 98

Cc1nn(-c2ccnc(Cl)c2)nc1Cc1ccnc(C(F)(F)F)c1 [Compound 141]
Plant response rating, Canarygrass [1, 11]: 20
Plant response rating, Canarygrass [1, 12]: 25
Plant response rating, Canarygrass [1, 13]: 50
Plant response rating, Canarygrass ([1]; 250 g ai/ha, scale 0 to 100): 80
Plant response rating, Goosegrass [2, 14]: 35
Plant response rating, Goosegrass [2, 15]: 40
Plant response rating, Goosegrass [2, 16]: 50
Plant response rating, Goosegrass [2, 17]: 60
Plant response rating, Bromegrass, Downy [3, 14]: 25
Plant response rating, Bromegrass, Downy [3, 15]: 30
Plant response rating, Bromegrass, Downy [3, 16]: 30
Plant response rating, Bromegrass, Downy [3, 17]: 45
Plant response rating, Windgrass [4, 11]: 50
Plant response rating, Windgrass [4, 12]: 50
Plant response rating, Windgrass [4, 13]: 55
Plant response rating, Windgrass ([4]; 250 g ai/ha, scale 0 to 100): 60
Plant response rating, Barley [5, 11]: 5
Plant response rating, Barley [5, 12]: 10
Plant response rating, Barley [5, 13]: 15
Plant response rating, Barley ([5]; 250 g ai/ha, scale 0 to 100): 30
Plant response rating, Foxtail, Green [6, 14]: 100
Plant response rating, Foxtail, Green [6, 15]: 100
Plant response rating, Foxtail, Green [6, 16]: 100
Plant response rating, Foxtail, Green [6, 17]: 100
Plant response rating, Surinam Grass [7, 14]: 15
Plant response rating, Surinam Grass [7, 15]: 15
Plant response rating, Surinam Grass [7, 16]: 30
Plant response rating, Surinam Grass [7, 17]: 30
Plant response rating, Deadnettle [8, 11]: 100
Plant response rating, Deadnettle [8, 12]: 100
Plant response rating, Deadnettle [8, 13]: 100
Plant response rating, Deadnettle ([8]; 250 g ai/ha, scale 0 to 100): 100
Plant response rating, Cocklebur [9, 14]: 5
